Drawing on ChEMBL document CHEMBL1287790, “Design, synthesis and SAR of thienopyridines as potent CHK1 inhibitors” (Bioorg Med Chem Lett, 2010), this text covers IC50 for 54 molecules.

For this experiment, the target named is T1, Serine/threonine-protein kinase Chk1 (Homo sapiens, UniProt O14757).
T1 sequence (O14757 whole entry): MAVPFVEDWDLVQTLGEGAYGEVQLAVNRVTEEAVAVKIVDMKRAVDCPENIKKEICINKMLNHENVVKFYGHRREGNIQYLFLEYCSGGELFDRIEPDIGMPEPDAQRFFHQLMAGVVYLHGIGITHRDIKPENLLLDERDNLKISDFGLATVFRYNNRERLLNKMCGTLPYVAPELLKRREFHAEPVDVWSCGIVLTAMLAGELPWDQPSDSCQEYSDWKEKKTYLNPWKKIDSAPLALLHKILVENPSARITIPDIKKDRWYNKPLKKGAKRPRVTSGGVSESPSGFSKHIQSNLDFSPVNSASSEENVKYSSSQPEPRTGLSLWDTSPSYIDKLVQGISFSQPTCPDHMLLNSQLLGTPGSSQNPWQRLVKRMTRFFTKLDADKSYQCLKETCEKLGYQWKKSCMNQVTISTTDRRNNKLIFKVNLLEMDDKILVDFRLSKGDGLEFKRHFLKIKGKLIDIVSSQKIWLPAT
Put plainly: Inhibition of His-tagged CHK1 after 2 hrs by liquid scintillation counting.

What is called IC50 is the concentration at which inhibition is half-maximal. Low readings indicate inhibition by little substance, high ones a need for much substance. `CC(=O)Nc1cccc(-c2cc3c(N[C@H]4CCCNC4)ncc(C(N)=O)c3s2)c1` gave an IC50 of 2 nM.

`NC(=O)c1cnc(N[C@H]2CCCNC2)c2cc(-c3cccc(N)c3)sc12` came in with an IC50 of 2 nM.

`CN(C)C(=O)c1ccc(-c2cc3c(N[C@H]4CCCNC4)ncc(C(N)=O)c3s2)cc1`: half-maximal inhibition (IC50) was put at 1 nM.

`COc1ccc(-c2cc3c(N[C@H]4CCCNC4)ncc(C(N)=O)c3s2)cn1` returned an IC50 of 3 nM.

As to `NC(=O)c1cnc(N[C@H]2CCCNC2)c2cc(-c3ccncc3)sc12`, half-maximal inhibition (IC50) was put at 3 nM. That is a single-digit nanomolar value.

`NC(=O)c1cnc(N[C@H]2CCCNC2)c2cc(-c3ccc(F)c(F)c3)sc12` gave an IC50 of 2 nM. Compared with the last molecule, the IC50 is about 1.5-fold lower.

For `CN(C)S(=O)(=O)c1cccc(-c2cc3c(N[C@H]4CCCNC4)ncc(C(N)=O)c3s2)c1`, the IC50 was 20 nM.

On to `CN(C)S(=O)(=O)c1ccc(-c2cc3c(N[C@H]4CCCNC4)ncc(C(N)=O)c3s2)cc1`, for which the IC50 stood at 16 nM.

In turn, `NC(=O)c1cnc(N[C@H]2CCCNC2)c2cc(-c3cccnc3)sc12` came in with an IC50 of 5 nM.

`NC(=O)c1cnc(N[C@H]2CCCNC2)c2cc(-c3ccccc3)sc12` returned an IC50 of 4 nM.

Consider `NC(=O)c1cnc(N[C@H]2CCCNC2)c2sc(-c3ccc(Cl)cc3)cc12`, for which inhibition was half-maximal at 4580 nM (IC50).

In turn, `NC(=O)c1cnc(N[C@H]2CCCNC2)c2nc(-c3ccc(Cl)cc3)sc12` returned an IC50 of 9 nM.

`NC(=O)c1cnc(N[C@H]2CCCNC2)c2cc(-c3ccccc3Cl)sc12` yielded an IC50 of 21 nM.

In turn, `NC(=O)c1cnc(N[C@H]2CCCNC2)c2cc(-c3cccc4[nH]ccc34)sc12` showed an IC50 of 5 nM.

Take `COc1ccccc1-c1cc2c(N[C@H]3CCCNC3)ncc(C(N)=O)c2s1`: the half-maximal inhibitory concentration (IC50) turned out to be 19 nM.

`COc1ccc(-c2cc3c(N[C@H]4CCCNC4)ncc(C(N)=O)c3s2)cc1`: the midpoint of inhibition, the IC50, lay at 3 nM.

`NC(=O)c1cnc(N[C@H]2CCCNC2)c2cc(-c3cccc(CO)c3)sc12`: the IC50 was 3 nM.

`NC(=O)c1cnc(N[C@H]2CCCNC2)c2cc(-c3ccc4sccc4c3)sc12` had an IC50 of 4 nM. The IC50 values of the last two molecules are within 1.5-fold of each other.

In turn, `NC(=O)c1cnc(N[C@H]2CCCNC2)c2cc(-c3ccc(Oc4ccccc4)cc3)sc12` came in with an IC50 of 4 nM. This counts as single-digit nanomolar.

Take `NC(=O)c1cnc(N[C@H]2CCCNC2)c2cc(-c3ccc4[nH]ccc4c3)sc12`: the IC50 is 60 nM.

Molecule `NC(=O)c1cnc(N[C@H]2CCCNC2)c2cc(-c3ccc4cc[nH]c4c3)sc12` displayed an IC50 of 16 nM.

In turn, `NC(=O)Nc1sc(-c2ccc(Cl)cc2)cc1C(=O)NC1CCCCC1` returned an IC50 of 2 nM.

The molecule `NC(=O)c1cnc(N[C@H]2CCCNC2)c2cc(-c3ccc(F)cc3F)sc12` had an IC50 of 9 nM.

Regarding `NC(=O)c1cnc(N[C@H]2CCCNC2)c2cc(-c3ccc(Cl)c(F)c3)sc12`, the IC50 came out at 9 nM. This lies in the single-digit nanomolar range.

Take `NC(=O)c1cnc(N[C@H]2CCNC2)c2cc(-c3ccc(Cl)cc3)sc12`: the IC50 stood at 14 nM.

In turn, `NC(=O)c1cnc(NC2CNC2)c2cc(-c3ccc(Cl)cc3)sc12` had an IC50 of 707 nM.

`NC(=O)c1cnc(N[C@H]2CCCNC2)c2cc(-c3ccc(C(F)(F)F)cc3)sc12` showed an IC50 of 5 nM.

For `CS(=O)(=O)c1ccc(-c2cc3c(N[C@H]4CCCNC4)ncc(C(N)=O)c3s2)cc1`, the IC50 stood at 2 nM.

For `NC(=O)Nc1sc(-c2ccc(Cl)cc2)cc1C(=O)N1CCCC[C@H](N)C1`, 746 nM corresponded to half-maximal inhibition (IC50).

For the molecule `NC(=O)c1cnc(N[C@H]2CCCCNC2)c2cc(-c3ccc(Cl)cc3)sc12`, half-maximal inhibition (IC50) was put at 3 nM.

`N#Cc1cccc(-c2cc3c(N[C@H]4CCCNC4)ncc(C(N)=O)c3s2)c1` registered an IC50 of 7 nM.

In the case of `NC(=O)c1cnc(N[C@H]2CCCNC2)c2cc(-c3ccc(F)cc3)sc12`, the IC50 turned out to be 5 nM.

With `CNCCNc1ncc(C(N)=O)c2sc(-c3ccc(Cl)cc3)cc12`, it took 7 nM to reach half-maximal inhibition (IC50). This IC50 and that of the molecule before are within 1.5-fold of each other.

Molecule `NC(=O)c1cnc(NCC2CCCCN2)c2cc(-c3ccc(Cl)cc3)sc12` (centres undefined) showed an IC50 of 292 nM. This IC50 is about 42-fold higher than that of the molecule before.

The molecule `NC(=O)c1cnc(N[C@H]2CCCNC2)c2cc(-c3ccc(OC(F)(F)F)cc3)sc12` yielded an IC50 of 9 nM.

As for `NC(=O)c1cnc(N[C@H]2CCCNC2)c2cc(-c3ncccn3)sc12`, the IC50 was 60 nM.

For the molecule `NC(=O)c1cnc(NC[C@@H]2CCCN2)c2cc(-c3ccc(Cl)cc3)sc12`, the IC50 was 197 nM.

In turn, `NC(=O)c1cnc(NC[C@@H]2CSCN2)c2cc(-c3ccc(Cl)cc3)sc12` yielded an IC50 of 937 nM.

In the case of `NC(=O)c1cnc(N[C@H]2CCCNC2)c2cc(-c3ccc(F)c(Cl)c3)sc12`, the IC50 came to 4 nM.

Take `NC(=O)c1cnc(N[C@H]2CCCNC2)c2cc(-c3cc4ccccc4o3)sc12`: the IC50 worked out at 2 nM. Against the preceding molecule, the IC50 is about 2-fold lower.

`NC(=O)c1cnc(N2CCC[C@@H](N)C2)c2cc(-c3ccc(Cl)cc3)sc12` yielded an IC50 of 148 nM. This IC50 lies about 74-fold higher than the previous one.

Regarding `NC(=O)c1cnc(N[C@@H]2CCCNC2)c2cc(-c3ccc(Cl)cc3)sc12`, the IC50 turned out to be 211 nM.

For the molecule `NC(=O)c1cnc(N[C@H]2CCCNC2)c2cc(C#Cc3cccnc3)sc12`, the IC50 was determined as 67 nM.

`NC(=O)c1cnc(N[C@H]2CCCNC2)c2cc(-c3cnc4ccccc4c3)sc12` showed an IC50 of 34 nM.

The molecule `NC(=O)c1cnc(N[C@@H]2CCCC[C@H]2N)c2cc(-c3ccc(Cl)cc3)sc12` returned an IC50 of 27100 nM.

`COc1ccc(F)cc1-c1cc2c(N[C@H]3CCCNC3)ncc(C(N)=O)c2s1` came in with an IC50 of 24 nM.

Regarding `NC(=O)c1ccc(-c2cc3c(N[C@H]4CCCNC4)ncc(C(N)=O)c3s2)cc1`, the IC50 worked out at 1 nM.

Molecule `NC(=O)c1cnc(N[C@H]2CCCNC2)c2cc(-c3ccc4ncccc4c3)sc12` registered an IC50 of 5 nM.

With `NC(=O)c1cnc(N[C@H]2CCCNC2)c2cc(-c3cc(F)cc(F)c3)sc12`, the half-maximal inhibitory concentration (IC50) turned out to be 5 nM.

As for `NC(=O)c1cnc(N[C@H]2CCCNC2)c2cc(-c3cccc(Cl)c3)sc12`, the IC50 stood at 4 nM.

In turn, `Cn1ccc2cc(-c3cc4c(N[C@H]5CCCNC5)ncc(C(N)=O)c4s3)ccc21` had an IC50 of 8 nM.

Take `NC(=O)c1cnc(N[C@H]2CCCNC2)c2cc(-c3cccc(N4CCCC4)c3)sc12`: the IC50 came to 3 nM.

`NC(=O)c1cnc(N[C@H]2CCCNC2)c2cc(Br)sc12` gave an IC50 of 56 nM.

`NC(=O)c1cnc(N[C@H]2CCCNC2)c2ccsc12` showed a concentration for half-maximal inhibition (IC50) of 717 nM.
